# According to PMC7518156 (PeerJ, 2020):
# Entries after “also recorded” stand apart in the source; their conditions may differ. Where two headings read alike, the source gives them in different places.
# Experiment: Pharmacokinetics of ERL and GEF in Wistar rats after four weeks consumption of water or flavoured water (plasma, UPLC-MS/MS, non-compartmental analysis)
# Assay type: in vivo
# Conditions: for concentration at 0 h / concentration at 0.5 h / concentration at 1 h / concentration at 2 h / concentration at 3 h / concentration at 5 h / concentration at 24 h / concentration at 48 h / AUC(0-inf) / CL/F / Cmax / Tmax / AUC(0-t) / half-life / AUC: male, Wistar, rat, plasma, 20 mg/kg; for Tmax: read-out: tmax; for AUC(0-t): read-out: AUC0-48; for half-life: read-out: t½ (converted)
# Experimental: Fifty healthy male Wistar rats weighing 250 ± 30 g were obtained from the animal house, College of Pharmacy, King Saud University, Riyadh, Saudi Arabia. Rats were randomly divided into ten cages (n = 5). All individualized ventilated cages (IVC) type IV used in this study were of 20″L × 11″W × 9″ in dimension capable of hosting 4–5 rats. Cages density, bedding, and sanitation frequency was similar in all cages. Cages were housed at room temperature (25 °C) and at an average relative humidity of 50%. Daily observation of all rats was required to ensure that all animals maintained good health. All animal experiments strictly followed the guidelines of the Ethical Committee for Performing Studies on Animals, King Saud University, Riyadh, Saudi Arabia, protocol number KSU-SE-19-13.
# Four types of FW, (Aquafina®, a product of Pepsi-Cola®, Saudi Industrial Projects Company, Jeddah, Saudi Arabia) with different flavours, specifically berry (group II), peach (group III), lime (group IV), and pineapple FW (group V) were used. Other components found in FW used in this study include water, preservatives (sodium phosphate, potassium sorbet, sodium benzoate), acidifiers (citric acid, maleic acid), sweeteners (aspartame, potassium acesulfame, allose), acidity regulator (sodium citrate), and antioxidant agent (calcium disodium EDTA). […] The parallel design was used in this study to avoid animals’ physiological changes that could occur in the cross-over design, possibly affecting PK profiles of drug substances. All animals involved in the study were deprived from food, but not water/FW, for at least 12 h before drug administration. […] Drugs were administered to the rats between 7:00 am and 8:00 am. Rats were separately weighed from day one of water/FW consumption prior to drug administration for accurate dose calculation (Fig. S1). Blood samples (0.3 mL) were collected from each rat immediately prior to dosing (0 time) and at predetermined time points (0.5, 1, 2, 3, 5, 24, and 48 h) post drug administration. Blood samples were withdrawn and processed as described previously ([Maher et al., 2017]; [Maher, Alzoman & Shehata, 2016]; [Maher, Alzoman & Shehata, 2018]). Specifically, blood samples were withdrawn from the retro-orbital sinus into a series of heparinized tubes. Plasma was separated from collected blood samples by centrifugation at 4,500 rpm for 30 min where the centrifuge was maintained at 4 °C, and then stored at −20 °C until the day of analysis. […] A mixture of acetonitrile: water (80: 20, v/v), with 0.1% formic acid was used as a mobile phase at a flow rate of 0.2 mL/min ([Maher, Alzoman & Shehata, 2016]).
# Cmax and tmax were obtained from the corresponding plasma concentration–time curve (Figs. 1A and 1B). […] The area under the plasma concentration–time curve from time 0 to the last sampling time t, 48 h (AUC0–t) was calculated using the trapezoidal rule. […] AUC0–∞ was also derived by summing up AUC0–t andthe area obtained by extrapolation from time t to ∞. The latter area was calculated from the division of the last measured concentration (Clast) by λz.
# Results were presented as mean ± SD. PK parameters of all treated groups following the consumption of FW were compared with control (rats having free access to water), using one-way ANOVA and Bonferroni’s multiple comparisons test. Statistical significance was obtained with p-values ≤ 0.05.
# [1] = oral, PKSolver sheet, dose 20 mg/kg, +Berry, read-out: Conc
# [2] = oral, PKSolver sheet, dose 20 mg/kg, +Lime, read-out: Conc
# [3] = oral, PKSolver sheet, dose 20 mg/kg, +Peach, read-out: Conc
# [4] = oral, PKSolver sheet, dose 20 mg/kg, +Pineapple, read-out: Conc
# [5] = oral, PKSolver sheet, dose 20 mg/kg, drug alone (water), read-out: Conc
# [6] = po, rats, 20 mg/kg oral, +Berry FW, average, read-out: Conc*10 (ng/mL plasma)
# [7] = po, rats, 20 mg/kg oral, +Lime FW, average, read-out: Conc*10 (ng/mL plasma)
# [8] = po, rats, 20 mg/kg oral, +Peach FW, average, read-out: Conc*10 (ng/mL plasma)
# [9] = po, rats, 20 mg/kg oral, +Pineapple FW, average, read-out: Conc*10 (ng/mL plasma)
# [10] = po, rats, 20 mg/kg oral, drug alone (water), average, read-out: Conc*10 (ng/mL plasma)
# [11] = po, rats, 20 mg/kg oral, four weeks berry FW, n = 5, mean (SD)
# [12] = po, rats, 20 mg/kg oral, four weeks peach FW, n = 5, mean (SD)
# [13] = po, rats, 20 mg/kg oral, four weeks pineapple FW, n = 5, mean (SD)
# [14] = po, rats, 20 mg/kg oral, water (control), n = 5, mean (SD)
# [15] = po, raw data sheet, from average profile, +Berry FW
# [16] = po, raw data sheet, from average profile, +Lime FW
# [17] = po, raw data sheet, from average profile, +Peach FW
# [18] = po, raw data sheet, from average profile, +Pineapple FW
# [19] = po, raw data sheet, from average profile, drug alone (water)
# [20] = rats, berry FW relative to control (water)
# [21] = rats, lime FW relative to control (water)
# [22] = rats, peach FW relative to control (water)
# [23] = rats, pineapple FW relative to control (water)
# [24] = raw data sheet, +Berry FW vs drug alone
# [25] = raw data sheet, +Lime FW vs drug alone
# [26] = raw data sheet, +Peach FW vs drug alone
# [27] = raw data sheet, +Pineapple FW vs drug alone
structure (smiles),measurement,setting,value
"C#Cc1cccc(Nc2ncnc3cc(OCCOC)c(OCCOC)cc23)c1 [ERL, Erlotinib]",concentration at 0 h,[1],6.83 ng/mL
same,concentration at 0.5 h,[1],46.3 ng/mL
same,concentration at 1 h,[1],76.7 ng/mL
same,concentration at 2 h,[1],92.4 ng/mL
same,concentration at 3 h,[1],110 ng/mL
same,concentration at 5 h,[1],45.6 ng/mL
same,concentration at 24 h,[1],11.9 ng/mL
same,concentration at 48 h,[1],8.18 ng/mL
same,concentration at 0 h,[2],19.8 ng/mL
same,concentration at 0.5 h,[2],164 ng/mL
same,concentration at 1 h,[2],103 ng/mL
same,concentration at 2 h,[2],73.3 ng/mL
same,concentration at 3 h,[2],57.6 ng/mL
same,concentration at 5 h,[2],42.2 ng/mL
same,concentration at 24 h,[2],32.1 ng/mL
same,concentration at 48 h,[2],25.1 ng/mL
same,concentration at 0 h,[3],5.49 ng/mL
same,concentration at 0.5 h,[3],67.8 ng/mL
same,concentration at 1 h,[3],81.7 ng/mL
same,concentration at 2 h,[3],111 ng/mL
same,concentration at 3 h,[3],43.2 ng/mL
same,concentration at 5 h,[3],18.2 ng/mL
same,concentration at 24 h,[3],11.4 ng/mL
same,concentration at 48 h,[3],9.85 ng/mL
same,concentration at 0 h,[4],10.6 ng/mL
same,concentration at 0.5 h,[4],22.3 ng/mL
same,concentration at 1 h,[4],36.6 ng/mL
same,concentration at 2 h,[4],120 ng/mL
same,concentration at 3 h,[4],45.3 ng/mL
same,concentration at 5 h,[4],20.9 ng/mL
same,concentration at 24 h,[4],15.8 ng/mL
same,concentration at 48 h,[4],14 ng/mL
same,concentration at 0 h,[5],9.48 ng/mL
same,concentration at 0.5 h,[5],44.5 ng/mL
same,concentration at 1 h,[5],105 ng/mL
same,concentration at 2 h,[5],48.2 ng/mL
same,concentration at 3 h,[5],29.7 ng/mL
same,concentration at 5 h,[5],23.2 ng/mL
same,concentration at 24 h,[5],12.3 ng/mL
same,concentration at 48 h,[5],9.77 ng/mL
same,concentration at 0 h,[6],6.83 ng/mL
same,concentration at 0.5 h,[6],46.3 ng/mL
same,concentration at 1 h,[6],76.7 ng/mL
same,concentration at 2 h,[6],92.4 ng/mL
same,concentration at 3 h,[6],110 ng/mL
same,concentration at 5 h,[6],45.6 ng/mL
same,concentration at 24 h,[6],11.9 ng/mL
same,concentration at 48 h,[6],8.18 ng/mL
same,concentration at 0 h,[7],19.8 ng/mL
same,concentration at 0.5 h,[7],164 ng/mL
same,concentration at 1 h,[7],103 ng/mL
same,concentration at 2 h,[7],73.3 ng/mL
same,concentration at 3 h,[7],57.6 ng/mL
same,concentration at 5 h,[7],42.2 ng/mL
same,concentration at 24 h,[7],32.1 ng/mL
same,concentration at 48 h,[7],25.1 ng/mL
same,concentration at 0 h,[8],5.49 ng/mL
same,concentration at 0.5 h,[8],67.8 ng/mL
same,concentration at 1 h,[8],81.7 ng/mL
same,concentration at 2 h,[8],111 ng/mL
same,concentration at 3 h,[8],43.2 ng/mL
same,concentration at 5 h,[8],18.2 ng/mL
same,concentration at 24 h,[8],11.4 ng/mL
same,concentration at 48 h,[8],9.85 ng/mL
same,concentration at 0 h,[9],10.6 ng/mL
same,concentration at 0.5 h,[9],22.3 ng/mL
same,concentration at 1 h,[9],36.6 ng/mL
same,concentration at 2 h,[9],120 ng/mL
same,concentration at 3 h,[9],45.3 ng/mL
same,concentration at 5 h,[9],20.9 ng/mL
same,concentration at 24 h,[9],15.8 ng/mL
same,concentration at 48 h,[9],14 ng/mL
same,concentration at 0 h,[10],9.48 ng/mL
same,concentration at 0.5 h,[10],44.5 ng/mL
same,concentration at 1 h,[10],105 ng/mL
same,concentration at 2 h,[10],48.2 ng/mL
same,concentration at 3 h,[10],29.7 ng/mL
same,concentration at 5 h,[10],23.2 ng/mL
same,concentration at 24 h,[10],12.3 ng/mL
same,concentration at 48 h,[10],9.77 ng/mL
same,AUC(0-inf),[11],1380 ng·h/mL
same,CL/F,[11],241 mL/min/kg
same,Cmax,[11],111 ng/mL
same,Tmax,"po, rats, 20 mg/kg oral, four weeks lime FW, n = 5, mean (SD)",0.51 h
same,AUC(0-inf),[12],1530 ng·h/mL
same,CL/F,[12],219 mL/min/kg
same,AUC(0-t),[12],827 ng·h/mL
same,Cmax,[13],120 ng/mL
same,AUC(0-t),[13],942 ng·h/mL
same,AUC(0-inf),[14],1320 ng·h/mL
same,CL/F,[14],253 mL/min/kg
same,Cmax,[14],106 ng/mL
same,AUC(0-t),[14],827 ng·h/mL
same,Tmax,[14],1.02 h
same,half-life,[14],35.1 h
same,AUC,[15],1330 ng·h/mL
same,Cmax,[15],110 ng/mL
same,Tmax,[15],3 h
same,half-life,[15],13.3 h
same,AUC,[16],3340 ng·h/mL
same,Cmax,[16],164 ng/mL
same,Tmax,[16],0.5 h
same,half-life,[16],43.6 h
same,AUC,[17],1210 ng·h/mL
same,Cmax,[17],111 ng/mL
same,Tmax,[17],2 h
same,half-life,[17],27 h
same,AUC,[18],1670 ng·h/mL
same,Cmax,[18],120 ng/mL
same,Tmax,[18],2 h
same,half-life,[18],35.6 h
same,AUC,[19],1240 ng·h/mL
same,Cmax,[19],105 ng/mL
same,Tmax,[19],1 h
same,half-life,[19],29.4 h
same,decrease in t1/2,[20],~49%
same,effect on exposure (AUC0–48),[20],significantly affected
same,increase in AUC0–48,[20],42.35%
same,increase in tmax,[20],three times increase
same,decrease in apparent oral clearance (CL/F),[21],65%
same,decrease in tmax,[21],not statistically significant
same,increase in AUC0–∞,[21],200%
same,increase in Cmax,[21],95%
same,increase in t1/2,[21],~65%
same,"effect on Cmax, AUC0–48, AUC0–∞, and CL/F",[22],no significant effect
same,effect on PK parameters (overall),[22],minimum effect; also recorded: least effect; also recorded: nearly negligible effect
same,increase in t1/2,[22],about 41%
same,increase in tmax,[22],two times increase
same,increase in AUC0–∞,[23],86%
same,increase in t1/2,[23],~113.8%
same,increase in tmax,[23],two times increase
same,% change FOR AREA,[24],7% FOR AREA
same,% change FOR C MAX,[24],5% FOR C MAX
same,% change FOR AREA,[25],170% FOR AREA
same,% change FOR C MAX,[25],56% FOR C MAX
same,% change FOR AREA,[26],-2% FOR AREA
same,% change FOR C MAX,[26],6% FOR C MAX
same,% change FOR AREA,[27],35% FOR AREA
same,% change FOR C MAX,[27],13% FOR C MAX
